Legend:
Assay in all cases: combination Emax (second highest fraction inhibited in the dose matrix, 72 h); higher = more inhibition; extreme values may be limits of the assay
NB10 (Neuroblastoma) = test system: NB10 (Neuroblastoma)
Outline: (§1)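 Bliss excess equals the observed combination effect minus the expected value EA + EB − EA·EB, where EA and EB are the effects of each agent alone. Combination Emax is the second-highest inhibition within the matrix. Inhibition was scaled from CellTiter-Glo 2.0 luminescence, with 0 set by vehicle wells and 1 by blank wells, after 72 hours of two-drug dosing of cells plated in 1536-well plates.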

[1] = test system: NCI-H2085 (Non-Small Cell Lung Carcinoma)
Outline: as §1

[2] = test system: KURAMOCHI (Ovarian Carcinoma)
Outline: as §1

42-MG-BA (Glioblastoma) = test system: 42-MG-BA (Glioblastoma)
Outline: as §1

ES4 (Ewing's Sarcoma) = test system: ES4 (Ewing's Sarcoma)
Outline: as §1

[3] = test system: TCCSUP (Bladder Carcinoma)
Outline: as §1

[4] = test system: SK-ES-1 (Ewing's Sarcoma)
Outline: as §1

T98G (Glioblastoma) = test system: T98G (Glioblastoma)
Outline: as §1

HOS (Osteosarcoma) = test system: HOS (Osteosarcoma)
Outline: as §1

[5] = test system: Daoy (Other Solid Carcinomas)
Outline: as §1

[6] = test system: Hs-578-T (Breast Carcinoma)
Outline: as §1

[7] = test system: Ramos-2G6-4C10 (Burkitt's Lymphoma)
Outline: as §1

[8] = test system: CCRF-CEM (T-Lymphoblastic Leukemia)
Outline: as §1

[9] = test system: HCC-78 (Lung Adenocarcinoma)
Outline: as §1

[10] = test system: ME-1 (Acute Myeloid Leukemia)
Outline: as §1

[11] = test system: DEL (T-Cell Non-Hodgkin's Lymphoma)
Outline: as §1

[12] = test system: HO-1-N-1 (Oral Cavity Carcinoma)
Outline: as §1

[13] = test system: HT-1376 (Bladder Carcinoma)
Outline: as §1

[14] = test system: RO82-W-1 (Thyroid Gland Carcinoma)
Outline: as §1

[15] = test system: UM-UC-3 (Bladder Carcinoma)
Outline: as §1

Compound | combination Emax (NB10 (Neuroblastoma)) | combination Emax [1] | combination Emax [2] | combination Emax (42-MG-BA (Glioblastoma)) | combination Emax (ES4 (Ewing's Sarcoma)) | combination Emax [3] | combination Emax [4] | combination Emax (T98G (Glioblastoma)) | combination Emax (HOS (Osteosarcoma)) | combination Emax [5] | combination Emax [6] | combination Emax [7] | combination Emax [8] | combination Emax [9] | combination Emax [10] | combination Emax [11] | combination Emax [12] | combination Emax [13] | combination Emax [14] | combination Emax [15]
CS(=O)(=O)CCNCc1ccc(-c2ccc3ncnc(Nc4ccc(OCc5cccc(F)c5)c(Cl)c4)c3c2)o1 [Lapatinib] + C[C@@H](Oc1cc(-c2cnn(C3CCNCC3)c2)cnc1N)c1c(Cl)ccc(F)c1Cl [Crizotinib] (first compound max 10 µM, 7x7, partner max 10 µM) | 0.796 | 0.673 | 0.721 | 0.767 | 0.928 | 0.508 | 0.938 | 0.949 | 0.408 | 0.934 | 0.991 | 0.898 | 0.881 | 0.882 | 0.194 | 1 | 0.979 | 0.255 | 0.203 | 0.307
CC(=O)c1c(C)c2cnc(Nc3ccc(N4CCNCC4)cn3)nc2n(C2CCCC2)c1=O [Palbociclib] + CC1(C)CCC(CN2CCN(c3ccc(C(=O)NS(=O)(=O)c4ccc(NCC5CCOCC5)c([N+](=O)[O-])c4)c(Oc4cnc5[nH]ccc5c4)c3)CC2)=C(c2ccc(Cl)cc2)C1 [Venetoclax] (first compound max 10 µM, 7x7, partner max 1 µM) | 0.293 | 0.167 | 0.0917 | 0.27 | 0.21 | 0.152 | 0.749 | 0.355 | 0.258 | 0.218 | 0.189 | 0.355 | 0.67 | 0.144 | 1 | 0.874 | 0.453 | 0.0784 | 0.174 | 0.175
CC(=O)c1c(C)c2cnc(Nc3ccc(N4CCNCC4)cn3)nc2n(C2CCCC2)c1=O [Palbociclib] + Cc1c2c(nn1C)CSCc1cc(n(C)n1)CSc1cc(c3ccccc3c1)OCCCc1c(C(=O)O)n(C)c3c-2c(Cl)ccc13 [AZD5991] (first compound max 10 µM, 7x7, partner max 1 µM) | 0.369 | 0.167 | 0.358 | 0.391 | 0.244 | 0.173 | 0.851 | 0.4 | 0.404 | 0.21 | 0.372 | 0.986 | 0.732 | 0.251 | 0.693 | 1 | 0.597 | 0.216 | 0.189 | 0.253
CC(=O)c1c(C)c2cnc(Nc3ccc(N4CCNCC4)cn3)nc2n(C2CCCC2)c1=O [Palbociclib] + Cn1cnc2c(F)c(Nc3ccc(Br)cc3Cl)c(C(=O)NOCCO)cc21 [Selumetinib] (first compound max 10 µM, 7x7, partner max 10 µM) | 0.579 | 0.231 | 0.227 | 0.232 | 0.224 | 0.187 | 0.622 | 0.374 | 0.362 | 0.18 | 0.344 | 0.336 | 0.624 | 0.168 | 0.428 | 0.92 | 0.745 | 0.0425 | 0.178 | 0.246
COc1cccc(OCCCN)c1-c1cc(Nc2cnc(C#N)cn2)n[nH]1 [Prexasertib] + C=CCn1c(=O)c2cnc(Nc3ccc(N4CCN(C)CC4)cc3)nc2n1-c1cccc(C(C)(C)O)n1 [AZD1775] (first compound max 1 µM, partner max 1 µM) | 0.953 | 0.94 | 0.773 | 0.941 | 0.893 | 0.748 | 1 | 0.917 | 0.97 | 0.985 | 0.942 | 1 | 1 | 0.793 | 0.599 | 1 | 0.985 | 0.422 | 0.553 | 0.807
COc1cccc(OCCCN)c1-c1cc(Nc2cnc(C#N)cn2)n[nH]1 [Prexasertib] + CCc1c2c(nc3ccc(O)cc13)-c1cc3c(c(=O)n1C2)COC(=O)[C@]3(O)CC [SN-38] (first compound max 1 µM, 7x7, partner max 0.3 µM) | 0.865 | 0.86 | 0.897 | 1 | 0.878 | 0.934 | 1 | 0.904 | 0.994 | 0.999 | 0.982 | 1 | 1 | 0.947 | 0.627 | 1 | 1 | 0.529 | 0.511 | 0.987

Source: the supplement of paper PMC11061612
